From patent US20260159481A1, “INDOLE DERIVATIVE WITH SUBSTITUENT AND PHARMACEUTICAL USE” (MITOIMMUNE THERAPEUTICS INC., priority 2023, published 2026)

What was measured:
Format in all cases: cell-based
cardiac cells (H9C2) = assay: Protective effect against t-BHP-induced cell death in cardiac cells (LDH release); conditions: Rattus norvegicus, t-BHP 400 PM, 2 hours, read-out: EC50, protective effect against cell death due to t-BHP induction
In short: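 H9C2 cells were pretreated 15–20 min with compound at final 0.001–30 PM (so in the source), then exposed to t-BHP at final 400 PM for 2 h. LDH released into supernatant was measured colorimetrically at 490 nm after 15 min room-temperature reaction, and EC50 derived.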

MLE-12 cells [1] = assay: Inhibitory effect on intracellular lipid ROS (BODIPY 581/591 C11) under RSL3; conditions: 1 μM RSL3, 2 hours, compound 0.01, 0.1, 1 μM, FIG. 1
Description: To confirm the protective effect against intracellular lipid ROS in lung epithelial cells, MLE-12 cells were seeded at 2×10^5 cells/well in a 12-well plate and cultured for 18 to 24 hours. Example Compound 29 and Fer-1 were diluted to have the final concentration of 0.01, 0.1, and 1 μM and added to each well, and the cells were cultured for 10 minutes. Afterward, RSL3 was treated to have the final concentration of 1 μM, and the cells were cultured for 2 hours. To confirm the intracellular inhibitory effect on lipid ROS, the lipid peroxidation sensor BODIPY™ 581/591 C11 (Invitrogen™; D3861) was used. According to the manufacturer's protocol, the BODIPY™ 581/591 C11 was diluted in the culture broth to have the final concentration of […] and treated, and fluorescence staining was performed after a 30-minute reaction. The MILE-12 cells that were fluorescence-stained with BODIPY™ 581/591 C11 were detached from the 12-well plate using 0.25% trypsin-EDTA and transferred to a microtube. Fluorescence (Ex/Em=500-650 nm/510-665 nm) was measured using BD FACSLyric™, and the relative change compared to the control was calculated.

MLE-12 cells [2] = assay: Inhibitory effect on mito-ROS (MitoSOX) under RSL3; conditions: 1 μM RSL3, 2 hours, FIG. 4
Description: To confirm the protective effect against mito-ROS in lung epithelial cells, MILE-12 cells were seeded at 2×10^5 cells/well in a 12-well plate and cultured for 18 to 24 hours. Example Compound 29 and Fer-1 were diluted to have the final concentration of 0.01, 0.1, 1 and 10 M and added to each well, and the cells were cultured for 10 minutes. Afterward, RSL3 was treated to have the final concentration of 1 M, and the cells were cultured for 2 hours. To confirm the inhibitory effect on mito-ROS, the mitochondrial superoxide indicator MitoSOX™ (Invitrogen™; C6827) was used. According to the manufacturer's protocol, MitoSOX was diluted in the culture broth to have the final concentration of […], and fluorescence staining was performed after a 30-minute reaction. The MLE-12 cells fluorescence-strained with MitoSOX were detached from the 12-well plate using 0.25% trypsin-EDTA and transferred to a microtube, and fluorescence (Ex/Em=˜396 nm/610 nm) was measured using BD FACSLyric™, and the relative change compared to the control (RSL3-untreated group) was calculated.

MLE-12 cells [3] = assay: Inhibitory effect on intracellular accumulation of ferrous ions (FerroOrange) under RSL3; conditions: 1 μM RSL3, 8 hours, FIG. 5
Description: To confirm the inhibitory effect on intracellular accumulation of ferrous ions in lung epithelial cells, MILE-12 cells were seeded at 2×10^5 cells/well in a 12-well plate and cultured for 18 to 24 hours. Example Compound 29 and Fer-1 were diluted to have the final concentration of 0.01, 0.1, 1, and 10 μM and added to each well, and the cells were cultured for 10 minutes. Afterward, RSL3 was treated to have the final concentration of 1 M, and the cells were cultured for 8 hours. To confirm the inhibitory effect on intracellular accumulation of ferrous ions, FerroOrange (DOJINDO; F374) was used. According to the manufacturer's protocol, FerroOrange was diluted in the culture broth to have the final concentration of 1 M and added, and fluorescence staining was performed after a 30-minute reaction. The MLE-12 cells that were fluorescence-stained with FerroOrange were detached from the 12-well plate using 0.25% trypsin-EDTA and transferred to a microtube. Fluorescence (Ex/Em=580 nm/[…]) was measured using BD FACSLyric™, and the relative change compared to the control (RSL3-untreated group) was calculated.

Row | SMILES | EC50 (cardiac cells (H9C2)) [nM] | intracellular lipid ROS increased by RSL3 treatment (MLE-12 cells [1]) | mito-ROS increased by RSL3 treatment (MLE-12 cells [2]) | intracellular ferrous ions increased by RSL3 treatment (MLE-12 cells [3])
1 | OCCOCCOCc1cc(NC2CCOCC2)c2[nH]c(-c3ccccc3)cc2c1 [Example 29, 2-(2-((2-phenyl-7-((tetrahydro-2H-pyran-4-yl)amino)-1H-indol-5-yl)methoxy)ethoxy)ethan-1-ol] | ≤ 300 | significantly decreased at 0.01, 0.1, and 1 μM | significantly decreased at 0.01, 0.1, and 1 μM | significantly decreased at 0.1 and 1 μM
2 | CCOC(=O)c1ccc(NC2CCCCC2)c(N)c1 [Fer-1, ferrostatin-1, reference compound] |  | significantly decreased at 0.01, 0.1, and 1 μM | significantly decreased at 0.01, 0.1, and 1 μM | significantly decreased at 0.1 and 1 μM
